Measurements: PubChem BioAssay AID2060620 (Molecular Pharmacology Branch, DTP, NCI, 2025)

Tested on: 328373-195-R-J1-PDC complex spheroids, viability % test/control
Experiment: Anticancer human tumor 328373-195-R-J1-PDC patient-derived head and neck squamous carcinoma cell line growth inhibition [CLK]
Conditions: for IC50: curve of first compound; for viability, T/C: stronger effect = lower value
Procedure, shortened: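 Multi-cell-type spheroids combined patient-derived tumor cells with HUVEC endothelial cells and human mesenchymal stem cells. Paired agents were dosed in half-log steps down from about clinical Cmax, or from 10 microM where Cmax was unknown.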

[1] = second compound 0.0316 µM, first compound 0.0316 µM
[2] = second compound 0.0316 µM, first compound 0.1 µM
[3] = second compound 0.1 µM, first compound 0.0316 µM
[4] = second compound 0.1 µM, first compound 0.1 µM
[5] = second compound 0.316 µM, first compound 0.0316 µM
[6] = second compound 0.316 µM, first compound 0.1 µM
[7] = second compound 1 µM, first compound 0.0316 µM
[8] = second compound 1 µM, first compound 0.1 µM
[9] = second compound 3.16 µM, first compound 0.0316 µM
[10] = second compound 3.16 µM, first compound 0.1 µM
[11] = second compound 10 µM, first compound 0.0316 µM
[12] = second compound 10 µM, first compound 0.1 µM
[13] = second compound 0.0316 µM, first compound 0.316 µM
[14] = second compound 0.0316 µM, first compound 1 µM
[15] = second compound 0.0316 µM, first compound 3.16 µM
[16] = second compound 0.0316 µM, first compound 10 µM
[17] = second compound 0.1 µM, first compound 0.316 µM
[18] = second compound 0.1 µM, first compound 1 µM
[19] = second compound 0.1 µM, first compound 3.16 µM
[20] = second compound 0.1 µM, first compound 10 µM
[21] = second compound 0.316 µM, first compound 0.316 µM
[22] = second compound 0.316 µM, first compound 1 µM
[23] = second compound 0.316 µM, first compound 3.16 µM
[24] = second compound 0.316 µM, first compound 10 µM
[25] = second compound 1 µM, first compound 0.316 µM
[26] = second compound 1 µM, first compound 1 µM
[27] = second compound 1 µM, first compound 3.16 µM
[28] = second compound 1 µM, first compound 10 µM
[29] = second compound 3.16 µM, first compound 0.316 µM
[30] = second compound 3.16 µM, first compound 1 µM
[31] = second compound 3.16 µM, first compound 3.16 µM
[32] = second compound 3.16 µM, first compound 10 µM
[33] = second compound 10 µM, first compound 0.316 µM
[34] = second compound 10 µM, first compound 1 µM
[35] = second compound 10 µM, first compound 3.16 µM
[36] = second compound 10 µM, first compound 10 µM
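Further: spheroids exposed to the agents for 7 days.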

`Cn1ncnc1[C@H]1c2n[nH]c(=O)c3cc(F)cc(c23)N[C@@H]1c1ccc(F)cc1` + CNC(=O)c1ccc(Nc2nc(OC3CCCC3)c3c(-c4ccc5nc(C)oc5c4)c[nH]c3n2)c(OC)c1 was tested, and the IC50 (second compound 0.0316 µM) was 40.6 nM, the IC50 (second compound 0.1 µM) was < 0.316 nM and the IC50 (second compound 0.316 µM) was < 0.316 nM. The IC50 (second compound 1 µM) was < 0.316 nM, the IC50 (second compound 3.16 µM) was < 0.316 nM and the IC50 (second compound 10 µM) was < 0.316 nM. It also gave a viability, T/C (second compound 0.0316 µM, first compound 0.000316 µM) of 51.9%, a viability, T/C (second compound 0.0316 µM, first compound 0.001 µM) of 51.6% and a viability, T/C (second compound 0.0316 µM, first compound 0.00316 µM) of 47.8%. For the same compound, the viability, T/C (second compound 0.0316 µM, first compound 0.01 µM) was 66.8%, the viability, T/C [1] was 51.7% and the viability, T/C [2] was 40.6%. The viability, T/C (second compound 0.1 µM, first compound 0.000316 µM) was 9.58%, the viability, T/C (second compound 0.1 µM, first compound 0.001 µM) was 9.68% and the viability, T/C (second compound 0.1 µM, first compound 0.00316 µM) was 9.49%. It also gave a viability, T/C (second compound 0.1 µM, first compound 0.01 µM) of 11.1%, a viability, T/C [3] of 9.25% and a viability, T/C [4] of 12.2%. For the same compound, the viability, T/C (second compound 0.316 µM, first compound 0.000316 µM) was 9.25%, the viability, T/C (second compound 0.316 µM, first compound 0.001 µM) was 10.3% and the viability, T/C (second compound 0.316 µM, first compound 0.00316 µM) was 8.72%. The viability, T/C (second compound 0.316 µM, first compound 0.01 µM) was 10.3%, the viability, T/C [5] was 9.93% and the viability, T/C [6] was 10.4%. It also gave a viability, T/C (second compound 1 µM, first compound 0.000316 µM) of 9.2%, a viability, T/C (second compound 1 µM, first compound 0.001 µM) of 9.13% and a viability, T/C (second compound 1 µM, first compound 0.00316 µM) of 9.32%. For the same compound, the viability, T/C (second compound 1 µM, first compound 0.01 µM) was 11.8%, the viability, T/C [7] was 9.07% and the viability, T/C [8] was 8.36%. The viability, T/C (second compound 3.16 µM, first compound 0.000316 µM) was 9.59%, the viability, T/C (second compound 3.16 µM, first compound 0.001 µM) was 9.4% and the viability, T/C (second compound 3.16 µM, first compound 0.00316 µM) was 9.78%. For the same compound, the viability, T/C (second compound 3.16 µM, first compound 0.01 µM) was 10%, the viability, T/C [9] was 11% and the viability, T/C [10] was 9.49%. The viability, T/C (second compound 10 µM, first compound 0.000316 µM) was 11.2%, the viability, T/C (second compound 10 µM, first compound 0.001 µM) was 11.1% and the viability, T/C (second compound 10 µM, first compound 0.00316 µM) was 8.71%. For the same compound, the viability, T/C (second compound 10 µM, first compound 0.01 µM) was 11.8%, the viability, T/C [11] was 12.4% and the viability, T/C [12] was 8.72%.

For `Nc1ccn(C2OC(CO)C(O)C2(F)F)c(=O)n1` (stereo unspecified) + CNC(=O)c1ccc(Nc2nc(OC3CCCC3)c3c(-c4ccc5nc(C)oc5c4)c[nH]c3n2)c(OC)c1, the IC50 (second compound 0.0316 µM) was < 31.6 nM, the IC50 (second compound 0.1 µM) was < 31.6 nM and the IC50 (second compound 0.316 µM) was < 31.6 nM. For the same compound, the IC50 (second compound 1 µM) was < 31.6 nM, the IC50 (second compound 3.16 µM) was < 31.6 nM and the IC50 (second compound 10 µM) was < 31.6 nM. It also gave a viability, T/C [1] of 2.44%, a viability, T/C [2] of 1.85% and a viability, T/C [13] of 3.64%. The viability, T/C [14] was 2.74%, the viability, T/C [15] was 2.63% and the viability, T/C [16] was 1.95%. For the same compound, the viability, T/C [3] was 3.4%, the viability, T/C [4] was 1.85% and the viability, T/C [17] was 2.02%. The viability, T/C [18] was 2.08%, the viability, T/C [19] was 2.83% and the viability, T/C [20] was 4.18%. The viability, T/C [5] was 3.23%, the viability, T/C [6] was 2.68% and the viability, T/C [21] was 4.06%. It also gave a viability, T/C [22] of 2.46%, a viability, T/C [23] of 2.95% and a viability, T/C [24] of 1.84%. It also gave a viability, T/C [7] of 4.36%, a viability, T/C [8] of 1.86% and a viability, T/C [25] of 1.79%. For the same compound, the viability, T/C [26] was 2.35%, the viability, T/C [27] was 3.18% and the viability, T/C [28] was 3.19%. For the same compound, the viability, T/C [9] was 5.21%, the viability, T/C [10] was 3.42% and the viability, T/C [29] was 4.01%. It also gave a viability, T/C [30] of 2.03%, a viability, T/C [31] of 2.01% and a viability, T/C [32] of 1.88%. For the same compound, the viability, T/C [11] was 6.95%, the viability, T/C [12] was 3.09% and the viability, T/C [33] was 3.18%. It also gave a viability, T/C [34] of 2.49%, a viability, T/C [35] of 2.14% and a viability, T/C [36] of 1.82%.

For `O=c1[nH]cc(F)c(=O)[nH]1` + CNC(=O)c1ccc(Nc2nc(OC3CCCC3)c3c(-c4ccc5nc(C)oc5c4)c[nH]c3n2)c(OC)c1, the IC50 (second compound 0.0316 µM) was < 31.6 nM, the IC50 (second compound 0.1 µM) was < 31.6 nM and the IC50 (second compound 0.316 µM) was < 31.6 nM. The IC50 (second compound 1 µM) was < 31.6 nM, the IC50 (second compound 3.16 µM) was < 31.6 nM and the IC50 (second compound 10 µM) was < 31.6 nM. It also gave a viability, T/C [1] of 37%, a viability, T/C [2] of 18.3% and a viability, T/C [13] of 8.48%. It also gave a viability, T/C [14] of 5.66%, a viability, T/C [15] of 6.31% and a viability, T/C [16] of 11.2%. For the same compound, the viability, T/C [3] was 8.64%, the viability, T/C [4] was 5.34% and the viability, T/C [17] was 5%. For the same compound, the viability, T/C [18] was 3.23%, the viability, T/C [19] was 2.62% and the viability, T/C [20] was 7.23%. It also gave a viability, T/C [5] of 7.44%, a viability, T/C [6] of 6.09% and a viability, T/C [21] of 4.45%. It also gave a viability, T/C [22] of 4.15%, a viability, T/C [23] of 4.13% and a viability, T/C [24] of 6.8%. The viability, T/C [7] was 8.18%, the viability, T/C [8] was 7.54% and the viability, T/C [25] was 3.88%. For the same compound, the viability, T/C [26] was 2.98%, the viability, T/C [27] was 2.83% and the viability, T/C [28] was 4.21%. For the same compound, the viability, T/C [9] was 11%, the viability, T/C [10] was 7.15% and the viability, T/C [29] was 3.65%. It also gave a viability, T/C [30] of 2.93%, a viability, T/C [31] of 3.84% and a viability, T/C [32] of 4.43%. The viability, T/C [11] was 12.2%, the viability, T/C [12] was 8.27% and the viability, T/C [33] was 4.41%. The viability, T/C [34] was 3.11%, the viability, T/C [35] was 3.46% and the viability, T/C [36] was 1.56%.
